Source: ChEMBL document CHEMBL3351438, “Further optimization of the M5 NAM MLPCN probe ML375: tactics and challenges” (Bioorg Med Chem Lett, 2015)
“And” between values parts separate entries of the source, which are not always exact repeats. Equal entries are not always repeated. The source made the active and inactive calls. The calls are words filed in the database; no cut-off is given here.

What was measured:
[1] = Cmax in Sprague-Dawley rat in brain at 10 mg/kg, po pretreated with 56.6 mg/kg, po 1-aminobenzotriazole; assay type: ADME, organism-based; design: dose 10 mg/kg, route oral
[2] = (§1) Fraction unbound in Sprague-Dawley rat plasma; assay type: ADME, cell-free; conditions: Sprague-Dawley
[3] = biological target: T1, Muscarinic acetylcholine receptor M5 (Homo sapiens, UniProt P08912); assay: Negative allosteric modulation of human muscarinic acetylcholine receptor M5 expressed in CHO cells assessed as inhibition of acetylcholine-induced calcium mobilization incubated for 150 secs prior to acetylcholine induction by Fluo4AM staining-based fluorescence assay
T1 sequence (P08912 whole entry): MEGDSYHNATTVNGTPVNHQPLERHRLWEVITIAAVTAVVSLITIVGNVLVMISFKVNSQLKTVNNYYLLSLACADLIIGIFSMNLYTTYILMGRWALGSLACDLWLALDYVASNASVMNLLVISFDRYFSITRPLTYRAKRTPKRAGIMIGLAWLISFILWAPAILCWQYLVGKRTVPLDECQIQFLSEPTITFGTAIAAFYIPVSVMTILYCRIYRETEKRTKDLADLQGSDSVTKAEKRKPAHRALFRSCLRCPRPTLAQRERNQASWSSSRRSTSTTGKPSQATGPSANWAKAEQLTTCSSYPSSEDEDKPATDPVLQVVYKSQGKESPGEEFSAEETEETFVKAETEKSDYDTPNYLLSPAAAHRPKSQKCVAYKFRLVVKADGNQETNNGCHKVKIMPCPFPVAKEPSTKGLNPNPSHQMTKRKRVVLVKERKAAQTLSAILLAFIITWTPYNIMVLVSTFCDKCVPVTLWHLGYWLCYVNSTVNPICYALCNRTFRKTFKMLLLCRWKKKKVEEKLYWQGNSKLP

[4] = biological target: T2, Muscarinic acetylcholine receptor M5 (Rattus norvegicus, UniProt P08911); assay: Negative allosteric modulation of rat muscarinic acetylcholine receptor M5 expressed in CHO cells assessed as inhibition of acetylcholine-induced calcium mobilization incubated for 150 secs prior to acetylcholine induction by Fluo4AM staining-based fluorescence assay; assay type: functional, cell-based
T2 sequence (P08911 whole entry): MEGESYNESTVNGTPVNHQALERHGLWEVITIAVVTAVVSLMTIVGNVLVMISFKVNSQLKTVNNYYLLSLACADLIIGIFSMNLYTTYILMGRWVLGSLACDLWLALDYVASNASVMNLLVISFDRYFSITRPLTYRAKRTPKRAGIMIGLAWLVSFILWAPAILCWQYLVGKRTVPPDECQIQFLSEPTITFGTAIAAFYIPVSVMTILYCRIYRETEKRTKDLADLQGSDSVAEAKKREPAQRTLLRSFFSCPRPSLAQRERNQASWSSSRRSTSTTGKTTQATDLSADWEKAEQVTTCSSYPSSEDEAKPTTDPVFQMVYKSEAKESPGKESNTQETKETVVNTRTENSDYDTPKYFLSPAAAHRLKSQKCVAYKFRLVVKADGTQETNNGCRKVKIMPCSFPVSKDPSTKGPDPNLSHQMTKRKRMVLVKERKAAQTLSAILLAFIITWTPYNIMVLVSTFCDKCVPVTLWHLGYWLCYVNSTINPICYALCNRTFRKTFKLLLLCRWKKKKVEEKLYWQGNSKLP

[5] = AUC (0 to infinity) in Sprague-Dawley rat at 10 mg/kg, po pretreated with 56.6 mg/kg, po 1-aminobenzotriazole; assay type: ADME, organism-based; design: dose 10 mg/kg, time infinity, route oral; conditions: plasma
[6] = Intrinsic clearance in human hepatocytes; assay type: ADME, cell-based, Hepatocyte; conditions: read-out: CLH
[7] = Half life in Sprague-Dawley rat at 1 mg/kg, iv; assay type: ADME, organism-based; design: dose 1 mg/kg, route intravenous; conditions: in vivo
[8] = Mean residence time in Sprague-Dawley rat at 10 mg/kg, po; assay type: ADME, organism-based; design: dose 10 mg/kg, route oral; conditions: in vivo
Rattus norvegicus [9] = assay: Oral bioavailability in Sprague-Dawley rat at 10 mg/kg; assay type: ADME, organism-based; conditions: in vivo
Plasma [10] = assay: fCmax in Sprague-Dawley rat plasma at 10 mg/kg, po pretreated with 56.6 mg/kg, po 1-aminobenzotriazole; assay type: ADME, organism-based; conditions: in vivo
[11] = Volume of distribution at steady state in Sprague-Dawley rat at 1 mg/kg, iv; assay type: ADME, organism-based; design: dose 1 mg/kg, route intravenous; conditions: in vivo, read-out: Vdss
[12] = Tmax in Sprague-Dawley rat at 10 mg/kg, po; assay type: ADME, organism-based; design: dose 10 mg/kg, route oral; conditions: in vivo
[13] = Intrinsic clearance in rat hepatocytes; assay type: ADME, cell-based, Hepatocyte; conditions: read-out: CLH
[14] = Intrinsic clearance in rat liver microsomes; assay type: ADME; conditions: read-out: CLH
[15] = Oral bioavailability in Sprague-Dawley rat at 10 mg/kg pretreated with 56.6 mg/kg, po 1-aminobenzotriazole; assay type: ADME, organism-based; conditions: in vivo
[16] = Cmax in Sprague-Dawley rat in plasma at 10 mg/kg, po pretreated with 56.6 mg/kg, po 1-aminobenzotriazole; assay type: ADME, organism-based; design: dose 10 mg/kg, route oral
Rattus norvegicus [17] = assay: AUC (0 to infinity) in Sprague-Dawley rat at 10 mg/kg, po; assay type: ADME, organism-based, Plasma; design: time infinity, dose 10 mg/kg, route oral; conditions: in vivo
[18] = Intrinsic clearance in human liver microsomes; assay type: ADME; conditions: read-out: CLH
[19] = Fraction unbound in Sprague-Dawley rat brain; assay type: ADME, tissue-based; conditions: brain tissue
[20] = biological target: T3, Muscarinic acetylcholine receptor M5 (Homo sapiens) (UniProt P08912); conditions: CHO
T3 sequence (whole entry): T1 sequence (P08912 whole entry)

[21] = (§2) Fraction unbound in human plasma; assay type: ADME, cell-free
Plasma [22] = assay: as §1; assay type: ADME, cell-free
Plasma [23] = assay: as §2; assay type: ADME, cell-free

SMILES	IC50 [3]	further results
COc1ccc([C@@]23c4ccccc4C(=O)N2CCN3C(=O)c2cc(F)c(F)c(F)c2)cc1C	0.264 µM	Cmax [1]: 5.4 µM; fraction unbound [2]: 0.031; IC50 ([4]; read-out: IC50): 0.516 µM; AUC(0-inf) [5]: 17.7 µg·h/mL; CLint scaled [6]: 1.19 L/h/kg; half-life [7]: 1.08 h; MRT [8]: 6.5 h; F (Rattus norvegicus [9]): 2%; fCmax (Plasma [10]): 62 nM; Vd [11]: 4.9 L/kg; Tmax [12]: 2.8 h; CLint scaled [13]: 3.47 L/h/kg; CLint scaled [14]: 19.9 L/h/kg; bioavailability [15]: 9.5%; Cmax [16]: 2 µM; AUC (Rattus norvegicus [17]): 3.66 µg·h/mL; CLint scaled [18]: 21.5 L/h/kg; fraction unbound [19]: 0.006
COc1ccc([C@]23c4ccccc4C(=O)N2CCN3C(=O)c2cc(F)c(F)c(F)c2)cc1C		pIC50 [20]: inactive; IC50 ([3]; cho): Not Active; IC50 ([4]; cho): Not Active; fraction unbound [21]: 0.013
[2H]C([2H])([2H])Oc1ccc([C@@]23c4ccccc4C(=O)N2CCN3C(=O)c2cc(F)c(F)c(F)c2)cc1C		CLint scaled [6]: 0.978 L/h/kg; CLint scaled [13]: 3.35 L/h/kg; CLint scaled [14]: 16.5 L/h/kg
O=C(c1ccc(F)c(F)c1)N1CCN2C(=O)c3ccccc3C12c1ccc(Cl)cc1 (racemic)		Fu (Plasma [22]): 0.031; Fu (Plasma [23]): 0.015
CC(C)Oc1ccc(C23c4ccccc4C(=O)N2CCN3C(=O)c2ccc(F)c(F)c2)cc1 (racemic)	> 30 µM	
O=C(c1ccc(F)c(F)c1)N1CCN2C(=O)c3ccccc3C12c1ccc2c(c1)OCO2 (racemic)	1.3 µM	
COc1ccc(C23c4ccccc4C(=O)N2CCN3C(=O)c2ccc(F)c(F)c2)cc1F (racemic)	3.3 µM	
COc1ccc(C23c4ccccc4C(=O)N2CCN3C(=O)c2ccc(F)c(F)c2)cc1Cl (racemic)	5.5 µM	
COc1ccc(C23c4ccccc4C(=O)N2CCN3C(=O)c2ccc(F)c(F)c2)cc1C (racemic)	1.2 µM	
COc1cc(C23c4ccccc4C(=O)N2CCN3C(=O)c2ccc(F)c(F)c2)ccc1F (racemic)	2.7 µM	
COc1cc(C23c4ccccc4C(=O)N2CCN3C(=O)c2ccc(F)c(F)c2)ccc1Cl (racemic)	2 µM	
COc1cc(C23c4ccccc4C(=O)N2CCN3C(=O)c2ccc(F)c(F)c2)ccc1C (racemic)	1.3 µM	
CCOc1ccc(C23c4ccccc4C(=O)N2CCN3C(=O)c2cc(F)c(F)c(F)c2)cc1 (racemic)	> 30 µM	
CC(C)Oc1ccc(C23c4ccccc4C(=O)N2CCN3C(=O)c2cc(F)c(F)c(F)c2)cc1 (racemic)	2.4 µM	
O=C(c1cc(F)c(F)c(F)c1)N1CCN2C(=O)c3ccccc3C12c1ccc2c(c1)OCO2 (racemic)	1 µM	
COc1ccc(C23c4ccccc4C(=O)N2CCN3C(=O)c2cc(F)c(F)c(F)c2)cc1F (racemic)	> 30 µM	
COc1ccc(C23c4ccccc4C(=O)N2CCN3C(=O)c2cc(F)c(F)c(F)c2)cc1Cl (racemic)	1.4 µM	
COc1ccc(C23c4ccccc4C(=O)N2CCN3C(=O)c2cc(F)c(F)c(F)c2)cc1C (racemic)	0.51 µM	IC50 ([4]; read-out: IC50): 0.963 µM
COc1cc(C23c4ccccc4C(=O)N2CCN3C(=O)c2cc(F)c(F)c(F)c2)ccc1F (racemic)	0.7 µM	
COc1cc(C23c4ccccc4C(=O)N2CCN3C(=O)c2cc(F)c(F)c(F)c2)ccc1Cl (racemic)	1.6 µM	
COc1cc(C23c4ccccc4C(=O)N2CCN3C(=O)c2cc(F)c(F)c(F)c2)ccc1C (racemic)	0.9 µM	
CCOc1ccc(C23c4ccccc4C(=O)N2CCN3C(=O)c2ccc(OC(C)C)cc2)cc1 (racemic)	4.1 µM	
CC(C)Oc1ccc(C(=O)N2CCN3C(=O)c4ccccc4C23c2ccc(OC(C)C)cc2)cc1 (racemic)	1.9 µM	
CC(C)Oc1ccc(C(=O)N2CCN3C(=O)c4ccccc4C23c2ccc3c(c2)OCO3)cc1 (racemic)	1.1 µM	
COc1ccc(C23c4ccccc4C(=O)N2CCN3C(=O)c2ccc(OC(C)C)cc2)cc1F (racemic)	3.2 µM	
COc1ccc(C23c4ccccc4C(=O)N2CCN3C(=O)c2ccc(OC(C)C)cc2)cc1Cl (racemic)	3.3 µM	
COc1ccc(C23c4ccccc4C(=O)N2CCN3C(=O)c2ccc(OC(C)C)cc2)cc1C (racemic)	1.3 µM	

SMILES	IC50 [3]	further results
COc1cc(C23c4ccccc4C(=O)N2CCN3C(=O)c2ccc(OC(C)C)cc2)ccc1F (racemic)	1.3 µM	
COc1cc(C23c4ccccc4C(=O)N2CCN3C(=O)c2ccc(OC(C)C)cc2)ccc1Cl (racemic)	6.4 µM	
COc1cc(C23c4ccccc4C(=O)N2CCN3C(=O)c2ccc(OC(C)C)cc2)ccc1C (racemic)	2.2 µM	
COc1ccccc1C(=O)N1CCN2C(=O)c3ccccc3C12c1ccc(Cl)cc1 (racemic)	> 10 µM	
COc1cccc(C(=O)N2CCN3C(=O)c4ccccc4C23c2ccc(Cl)cc2)c1 (racemic)	6.6 µM	
COc1ccc(C(=O)N2CCN3C(=O)c4ccccc4C23c2ccc(Cl)cc2)cc1 (racemic)	1.8 µM	
CCOc1ccc(C(=O)N2CCN3C(=O)c4ccccc4C23c2ccc(Cl)cc2)cc1 (racemic)	0.85 µM	
CC(C)Oc1ccc(C(=O)N2CCN3C(=O)c4ccccc4C23c2ccc(Cl)cc2)cc1 (racemic)	0.79 µM	
O=C(c1cc(F)c(F)c(F)c1)N1CCN2C(=O)c3ccccc3C12c1ccc(Cl)cc1 (racemic)	0.61 µM	
CN(C)c1ccc(C(=O)N2CCN3C(=O)c4ccccc4C23c2ccc(Cl)cc2)cc1 (racemic)	> 10 µM	
O=C(c1ccc(F)nc1)N1CCN2C(=O)c3ccccc3C12c1ccc(Cl)cc1 (racemic)	> 10 µM	
O=C(c1ccnc(F)c1)N1CCN2C(=O)c3ccccc3C12c1ccc(Cl)cc1 (racemic)	5.8 µM	
O=C(c1ccnnc1)N1CCN2C(=O)c3ccccc3C12c1ccc(Cl)cc1 (racemic)	> 10 µM	
O=C(c1cc(F)nc(F)c1)N1CCN2C(=O)c3ccccc3C12c1ccc(Cl)cc1 (racemic)	> 10 µM	
COc1ccccc1C12c3ccccc3C(=O)N1CCN2C(=O)c1ccc(F)c(F)c1 (racemic)	5.62 µM and 5.5 µM	
COc1cccc(C23c4ccccc4C(=O)N2CCN3C(=O)c2ccc(F)c(F)c2)c1 (racemic)	1.6 µM	
COc1ccc(C23c4ccccc4C(=O)N2CCN3C(=O)c2ccc(F)c(F)c2)cc1 (racemic)	1.3 µM	Fu (Plasma [22]): 0.064; Fu (Plasma [23]): 0.037
O=C(c1ccc(F)c(F)c1)N1CCN2C(=O)c3ccccc3C12c1ccc(Oc2ccccc2)cc1 (racemic)	> 10 µM	
O=C(c1ccc(F)c(F)c1)N1CCN2C(=O)c3ccccc3C12C1CCCCC1 (racemic)	2.1 µM	Fu (Plasma [22]): 0.016; Fu (Plasma [23]): 0.008
O=C(c1ccc(F)c(F)c1)N1CCN2C(=O)c3ccccc3C12C1CCCC1 (racemic)	2.4 µM	
O=C(c1ccc(F)c(F)c1)N1CCN2C(=O)c3ccccc3C12C1CCC1 (racemic)	> 10 µM	
O=C(c1ccc(F)c(F)c1)N1CCN2C(=O)c3ccccc3C12C1CC1 (racemic)	> 10 µM	
O=C(c1ccc(F)c(F)c1)N1CCN2C(=O)c3ccccc3C12C1CCOCC1 (racemic)	> 10 µM	
O=C(c1ccc(F)c(F)c1)N1CCN2C(=O)c3ccccc3C12c1ccccn1 (racemic)	> 10 µM	
O=C(c1ccc(F)c(F)c1)N1CCN2C(=O)c3ccccc3C12c1cccnc1 (racemic)	> 10 µM	
O=C(c1ccc(F)c(F)c1)N1CCN2C(=O)c3ccccc3C12c1ccncc1 (racemic)	> 10 µM	
CCOc1ccc(C23c4ccccc4C(=O)N2CCN3C(=O)c2ccc(F)c(F)c2)cc1 (racemic)	3.2 µM	
